Holding throughout (assay type): cell-based
In assay [1] the test system is KRAS G12V mutant human lung adenocarcinoma cells NCI-H441. As to the kind of experiment: 3D cell proliferation inhibition assay, NCI-H441. Particulars: Homo sapiens, NCI-H441, 168 h, 7 days, CTG. As to the method: (§1) Inhibition of 3D cell proliferation by the compounds was investigated on KRAS G12C mutant human non-small cell lung cancer cells NCI-H358 (ATCC or Stem Cell Bank, Chinese Academy of Sciences), KRAS G12D mutant human metastatic pancreatic adenocarcinoma cells AsPC-1 (ATCC), KRAS G12V mutant human lung adenocarcinoma cells NCI-H441 (ATCC), and KRAS G13D mutant human colorectal adenocarcinoma epithelial cells DLD-1 (ATCC). The specific procedures were as follows:
(§2) 200 nL of compound solution diluted in a gradient was added to corresponding microwells of a 384-well low-adsorption microwell plate (Corning, 3657) using an Echo sonic pipetting system (Labcyte, Echo 550), so that the final concentration of the test compound in the reaction system was in a range of 20000 nM-0.008 nM. Then 40 μL of cells at a certain density were added to the corresponding microplate. In addition to test wells for the test compounds, both a DMSO control well and a medium control well were set, with the DMSO control well containing DMSO and cells and the medium well containing only medium. After sample loading, the plate cover was applied, and the 384-well low-adsorption microplate was incubated in an incubator at 37° C. with 5% carbon dioxide for 7 days. After 7 days, the microplate was taken out, and 40 μL of CTG reagent (Promega, G9683) was added to each well. The plate was incubated at room temperature for 30 min and read on a microplate reader EnVision using the chemiluminescence program. The inhibition rates of the compounds at each concentration were calculated by the formula for the percentage inhibition of cell proliferation: inhibition rate %=(mean value of DMSO control group−single concentration reading value of compound)/(mean value of DMSO control group−mean value of medium control group)×100, and then nonlinear curve fitting was performed by GraphPad Prism 8 in the logarithmic concentration-inhibition rate to obtain the IC50 values of the compounds.

The test system of assay [2] is KRAS G12C mutant human non-small cell lung cancer cells NCI-H358. Kind of assay: 3D cell proliferation inhibition assay, NCI-H358. Particulars: Homo sapiens, NCI-H358, 168 h, 7 days, CTG. As to the method: as §1, §2
Assay [3] relates to KRAS G12D mutant human metastatic pancreatic adenocarcinoma cells AsPC-1. As to the kind of experiment: 3D cell proliferation inhibition assay, AsPC-1. Particulars: Homo sapiens, ASPC1, 168 h, 7 days, CTG. As to the method:
as §1, §2

Broadly, the IC50 is the concentration that gives 50% inhibition. Low values mean higher potency, high ones lower potency.

Take `COc1cc2nc(C)nc(N[C@H](C)c3cc(N)cc(C(F)(F)F)c3)c2cc1[C@H]1CC[C@H](C(=O)N2CCN(CCOCC3CCN(C(=O)c4ccc(Cl)c(N5CCC(=O)NC5=O)c4)CC3)CC2)CC1` [Example 33, 1-(5-(4-((2-(4-((1R,4R)-4-(4-(((R)-1-(3-amino-5-(trifluoromethyl)phenyl)ethyl)amino)-7-methoxy-2-methylquinazolin-6-yl)cyclohexane-1-carbonyl)piperazin-1-yl)ethoxy)methyl)piperidine-1-carbonyl)-2-chlorophenyl)dihydropyrimidine-2,4(1H,3H)-dione]: the IC50 in assay [1] is 100 to 1000 nM; in assay [2], ≤ 15 nM; in assay [3], 100 to 1000 nM.

Turning to `COc1cc2nc(C)nc(N[C@H](C)c3cc(N)cc(C(F)(F)F)c3)c2cc1[C@H]1CC[C@H](C(=O)N2CCC(CCOCC3CCN(C(=O)c4ccc(Cl)c(N5CCC(=O)NC5=O)c4)CC3)CC2)CC1` [Example 19, 1-(5-(4-((2-(1-((1R,4R)-4-(4-(((R)-1-(3-amino-5-(trifluoromethyl)phenyl)ethyl)amino)-7-methoxy-2-methylquinazolin-6-yl)cyclohexane-1-carbonyl)piperidin-4-yl)ethoxy)methyl)piperidine-1-carbonyl)-2-chlorophenyl)dihydropyrimidine-2,4(1H,3H)-dione], the results for the IC50 in assay [1], in assay [2] and in assay [3] were 50 to 100 nM, ≤ 15 nM and 100 to 1000 nM, respectively.

As for `COc1cc2nc(C)nc(N[C@H](C)c3cc(N)cc(C(F)(F)F)c3)c2cc1[C@H]1CC[C@H](C(=O)N2CCN(CC3CCC4(CC3)CCN(C(=O)c3ccc(Cl)c(N5CCC(=O)NC5=O)c3)CC4)CC2)CC1` [Example 2, 1-(5-(9-((4-((1R,4R)-4-(4-(((R)-1-(3-amino-5-(trifluoromethyl)phenyl)ethyl)amino)-7-methoxy-2-methylquinazolin-6-yl)cyclohexane-1-carbonyl)piperazin-1-yl)methyl)-3-azaspiro[5.5]undecane-3-carbonyl)-2-chlorophenyl)dihydropyrimidine-2,4(1H,3H)-dione], the half-maximal inhibitory concentration (IC50) in assay [1] is 100 to 1000 nM; in assay [2], ≤ 15 nM; in assay [3], 100 to 1000 nM.

As for `COc1cc2nc(C)nc(N[C@H](C)c3cc(N)cc(C(F)(F)F)c3)c2cc1[C@H]1CC[C@H](C(=O)N2CCN(CCC3CCC4(CC3)CCN(C(=O)c3ccc(Cl)c(N5CCC(=O)NC5=O)c3)CC4)CC2)CC1` [Example 1, 1-(5-(9-(2-(4-((1R,4R)-4-(4-(((R)-1-(3-amino-5-(trifluoromethyl)phenyl)ethyl)amino)-7-methoxy-2-methylquinazolin-6-yl)cyclohexane-1-carbonyl)piperazin-1-yl)ethyl)-3-azaspiro[5.5]undecane-3-carbonyl)-2-chlorophenyl)dihydropyrimidine-2,4(1H,3H)-dione], the values for the IC50 in assay [1], in assay [2] and in assay [3] were 30 to 50 nM, ≤ 15 nM and 15 to 30 nM, respectively.

Regarding `CNCc1ccccc1-c1csc([C@@H](C)Nc2nc(C)nc3cc(OC)c([C@H]4CC[C@H](C(=O)N5CCN(CC6CCC7(CC6)CCN(C(=O)c6ccc(OC)c(N8CCC(=O)NC8=O)c6)CC7)CC5)CC4)cc23)c1` [Example 73, 1-(2-methoxy-5-(9-((4-((1R,4R)-4-(7-methoxy-2-methyl-4-(((R)-1-(4-(2-((methylamino)methyl)phenyl)thien-2-yl)ethyl)amino)quinazolin-6-yl)cyclohexane-1-carbonyl)piperazin-1-yl)methyl)-3-azaspiro[5.5]undecane-3-carbonyl)phenyl)dihydropyrimidine-2,4(1H,3H)-dione], the IC50 in assay [1] is 100 to 1000 nM; in assay [2], ≤ 15 nM; in assay [3] it was 100 to 1000 nM.

On to `COc1cc2nc(C)nc(N[C@H](C)c3cccc4c3CCS4(=O)=O)c2cc1[C@H]1CC[C@H](C(=O)N2CCN(CC3CCC4(CC3)CCN(C(=O)c3ccc(Cl)c(N5CCC(=O)NC5=O)c3)CC4)CC2)CC1` [Example 10, 1-(2-chloro-5-(9-((4-((1R,4R)-4-(4-(((R)-1-(1,1-dioxo-2,3-dihydrobenzo[b]thiophen-4-yl)ethyl)amino)-7-methoxy-2-methylquinazolin-6-yl)cyclohexane-1-carbonyl)piperazin-1-yl)methyl)-3-azaspiro[5.5]undecane-3-carbonyl)phenyl)dihydropyrimidine-2,4(1H,3H)-dione], for which the IC50 was ≤ 15 nM in assay [1], ≤ 15 nM in assay [2] and 30 to 50 nM in assay [3].
